Assay results from US20250011734A1, “DGAT1/2-INDEPENDENT ENZYME SYNTHESIZING STORAGE LIPIDS (DIESL)” (STICHTING HET NEDERLANDS KANKER INSTITUUT-ANTONI VAN …, priority 2021, published 2025).
One block for each molecule: values may come before it.

How the values were obtained:
[1] = tested on: RPE1 cells; test: Mitochondrial membrane potential and ATP levels in RPE1 cells lacking DIESL cultured without lipoproteins; assay type: cell-based
Method: For BODIPY 493/503 measurements in fixed HAP1 cells, HAP1 cells, grown in 10 cm plates, were collected by trypsinization and were fixed in Fix Buffer I (BD Biosciences) for 10 minutes at 37° C. Cells were pelleted, washed with FACS buffer (10% FBS in PBS), resuspended in FACS buffer and counted. 10 million cells were stained with 1 μg/ml BODIPY 493/503 and 5 μg/ml DAPI (Invitrogen), diluted in FACS buffer, for one hour at room temperature. Cells were washed once in FACS buffer, then passed through a 35 μm nylon mesh cell strainer into a FACS tube. Fluorescence was analyzed on an LSR Fortessa (BD Biosciences) analytical flow cytometer, using 405 and 488 nm lasers to detect DAPI and BODIPY 493/503, respectively. Data were analyzed using FlowJo (BD Life Sciences). Fluorescence plots represent the fluorescent signal measured in single haploid G1 cells, as determined by DAPI fluorescence intensity. […] Fluorescence (using a 561 nm laser) and data were analyzed as above. Fluorescence plots represent the fluorescent signal measured in single cells. Membrane potential was calculated by subtracting the fluorescence mean of depolarized (CCCP-treated) cells. RPE1 cells were plated in 96-well plates and ATP levels were measured using CellTitre-Glo (Promega) according to the manufacturer's instructions. […]

[2] = biological target: T1, 3xHA-tagged DIESL (human TMEM68, DGAT1/2-Independent Enzyme Synthesizing Storage Lipids) (human, UniProt Q96MH6 1-324, N-glycosylation at its N-terminus (N-X-S/T motif; N5Q mutant served as negative control)); test: summary of the examples (crosslinking and co-immunoprecipitation)
T1 construct: It is an ER membrane protein and was assayed in cells or cell lysates; also called 3xHA-DIESL; transmembrane protein 68; not shown: the N-terminal position is inferred only from the name 3xH
T1 sequence: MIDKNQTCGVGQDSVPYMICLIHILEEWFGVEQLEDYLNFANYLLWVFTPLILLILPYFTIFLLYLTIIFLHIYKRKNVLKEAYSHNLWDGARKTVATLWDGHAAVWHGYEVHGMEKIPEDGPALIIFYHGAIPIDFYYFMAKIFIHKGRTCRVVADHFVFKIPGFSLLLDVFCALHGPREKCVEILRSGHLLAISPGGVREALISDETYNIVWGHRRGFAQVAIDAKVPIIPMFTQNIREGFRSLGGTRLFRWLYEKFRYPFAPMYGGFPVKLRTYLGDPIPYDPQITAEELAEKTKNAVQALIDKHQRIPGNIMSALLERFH
Method: HAP1 ΔDIESL and ATMX1ΔDIESL cells reconstituted with 3xHA-DIESL, or HeLa WT cells expressing 3xHA-DIESL, were washed with PBS and incubated in 1% paraformaldehyde for 20 minutes at room temperature. Cross-linking reactions were quenched by incubation in 0.2 M glycine for 10 minutes. Cells were then lysed in RIPA buffer on ice as described above, sonicated and protein concentrations were determined. Samples were separated by SDS-PAGE and immunoblotted as described above.
HAP1 ΔDIESL cells reconstituted with 3xHA-DIESL, grown to confluence in a 6-well plate, were lysed in 400 μl IP buffer (25 mM HEPES PH 7.0, 150 mM NaCl, 1% detergent [Tween-20 unless otherwise indicated], and protease/phosphatase inhibitor cocktails) on ice, sonicated and cleared by centrifugation. 250 μl of lysate was incubated with 10 μl of PBS-washed anti-HA magnetic beads (Pierce) overnight while rotating at 4° C. The following day, beads were washed three times in IP buffer before elution in SDS-PAGE sample buffer at 90° C. for 20 minutes. One-quarter of this eluate (along with the corresponding amount of input sample) were separated by SDS-PAGE and subjected to immunoblot analysis as above.

Molecule: CCCCCCCC/C=C\CCCCCCCC(=O)O [oleic acid]
- Rescue of decreased mitochondrial membrane potential and ATP levels ([1]; DIESL-deficient RPE1 cells, lipoprotein-deficient medium supplemented with 50 µM oleic acid for 24 hours, FIG. 19F): rescued

Molecule: CCOC(=O)[C@@]1(CCCCCCOc2ccc(Cl)cc2)CO1 [etomoxir]
- Effect of CPT1A inhibition on the oleic acid rescue ([1]; DIESL-deficient RPE1 cells without lipoproteins plus oleic acid, data not shown): sensitive

- binding result [2]: binds
B1: Thioredoxin related transmembrane protein 1 (TMX1), human, endogenous in HAP1 / HeLa cells (enzyme)
chain: RRSNVRVITDENWRELLEGDWMIEFYAPWCPACQNLQPEWESFAEWGEDLEVNIAKVDVTEQPGLSGRFIITALPTIYHCKDGEFRRYQGPRTKKDFINFISDKEWKSIEPVSSWFGPGSVLMSSMSALFQLSMWIRTCHNYFIEDLGLPVWGSYTVFALATLFSGLLLGLCMIFVADCLCPSKRRRPQPYPYPSKKLLSESAQPLKKVEEEQEADEEDVSEEEAESKEGTNKDFPQNAIRQRSLGPSLATDKS
notes: Endogenous TMX1 of human cell lines (HAP1, HeLa), an ER membrane protein, detected with anti-TMX1 antibodies; also called transmembrane thioredoxin 1; TMX1 polypeptide
